{
  "source": "patent US20140147549A1",
  "about": "“CARBOHYDRATE BAR” (NESTEC S.A., priority 2008, published 2014)",
  "origin": "cited, not measured here",
  "details": "previous research data, single carbohydrate source alone",
  "data": [
    {"compound": "O=C(CO)[C@@H](O)[C@H](O)[C@H](O)CO", "note": "[fructose]", "values": [
      {"measurement": "peak exogenous carbohydrate oxidation, single carbohydrate source", "result": "~0.4", "unit": "g/min"}
    ]}
  ]
}
